Test results from patent US11773078B2, “Furin inhibitors” (Glaxosmithkline Intellectual Property Development Limited, priority 2018, dated 2023).

Legend:
[1] = biological target: T1, Furin (108-574-Tev-Flag-His) enzyme (Homo sapiens, UniProt P09958); assay: Furin enzyme assay; type: biochemical
T1 construct: Furin (108-574-Tev-Flag-His) enzyme was expressed and purified from CHO cells; TEV cleavage site (C); FLAG (C); His (C); made in house; host or cells: CHO cells
Summary of the method: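 Compounds ran as 11-point threefold dilutions (0.00017–10 μM final) against 40 pM furin, purified from CHO cells, for 2 h at room temperature. Buffer: 100 mM HEPES pH7.5 with 1 mM CaCl2 and 0.005% Triton X-100. Envision readout. Four-parameter curve gives pXC50.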

[2] = biological target: T2, furin (endogenous protease) in U20S cells (Homo sapiens, UniProt P09958); assay: Furin cell-based assay (image-based, Golgi-targeted GFP with BMP10 furin/PCSK cleavage site); conditions: 24-hour incubation, read-out: furin golgi cell pXC50 (converted);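 further: Read-out is mean GFP fluorescence of Golgi puncta per cell by high-content imaging, retained when furin inhibited, over an eleven-point 0.00017–10 µM series, four-parameter fit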
T2 construct: the endogenous protease cleaves GFP; endogenous in cells; host or cells: U2OS cells transduced with a BacMam reporter
T2 sequence (P09958 108-794): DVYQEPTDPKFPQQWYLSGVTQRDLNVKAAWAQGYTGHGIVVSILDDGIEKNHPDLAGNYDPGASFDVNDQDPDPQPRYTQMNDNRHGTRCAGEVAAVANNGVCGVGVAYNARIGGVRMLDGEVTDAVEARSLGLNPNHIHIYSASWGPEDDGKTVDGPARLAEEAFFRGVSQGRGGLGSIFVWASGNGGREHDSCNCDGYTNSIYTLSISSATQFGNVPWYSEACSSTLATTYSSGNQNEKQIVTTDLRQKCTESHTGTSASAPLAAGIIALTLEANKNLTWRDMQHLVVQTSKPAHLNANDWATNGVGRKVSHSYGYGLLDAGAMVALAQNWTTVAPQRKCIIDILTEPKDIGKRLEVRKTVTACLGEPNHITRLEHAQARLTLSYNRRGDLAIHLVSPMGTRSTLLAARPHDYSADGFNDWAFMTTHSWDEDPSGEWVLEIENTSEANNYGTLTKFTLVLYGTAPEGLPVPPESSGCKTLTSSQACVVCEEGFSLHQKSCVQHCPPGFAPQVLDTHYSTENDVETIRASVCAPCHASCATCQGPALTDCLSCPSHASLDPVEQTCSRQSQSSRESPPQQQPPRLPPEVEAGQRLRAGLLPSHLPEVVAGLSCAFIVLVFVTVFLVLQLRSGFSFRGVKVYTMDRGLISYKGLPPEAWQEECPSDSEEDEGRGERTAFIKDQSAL

T1 sequence (P09958 108-574): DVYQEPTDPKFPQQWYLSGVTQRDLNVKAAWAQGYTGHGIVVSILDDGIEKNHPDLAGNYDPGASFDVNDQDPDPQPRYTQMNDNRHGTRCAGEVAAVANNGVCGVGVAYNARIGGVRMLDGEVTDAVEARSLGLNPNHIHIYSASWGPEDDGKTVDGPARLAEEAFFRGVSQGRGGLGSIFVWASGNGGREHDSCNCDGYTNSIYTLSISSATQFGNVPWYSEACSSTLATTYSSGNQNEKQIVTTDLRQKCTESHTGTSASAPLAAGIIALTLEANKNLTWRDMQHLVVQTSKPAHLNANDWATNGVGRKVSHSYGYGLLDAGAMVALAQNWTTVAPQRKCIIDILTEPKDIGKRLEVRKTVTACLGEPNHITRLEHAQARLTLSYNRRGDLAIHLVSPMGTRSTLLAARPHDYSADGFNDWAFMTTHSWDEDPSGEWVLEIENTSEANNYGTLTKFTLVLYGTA

furin enzyme pIC50 [1]	EC50 [2] [nM]	IC50 ([1]; read-out: furin enzyme pIC50 (converted)) [nM]	SMILES
8.5	7.94	–	COC1CN(C)CCN(c2ncc(Oc3cc(CN4CCC(CC(=O)O)CC4)cc(-c4cc(Cl)cc(Cl)c4)n3)cn2)C1 (centres unmarked) [Example 144, 2-(1-((2-(3,5-dichlorophenyl)-6-((2-(6-methoxy-4-methyl-1,4-diazepan-1-yl)pyrimidin-5-yl)oxy)pyridin-4-yl)methyl)piperidin-4-yl)acetic acid]
8.5	15.8	–	CN1CCN(c2ncc(Oc3cc(CN4CCC(CC(=O)O)CC4)cc(-c4cc(Cl)cc(Cl)c4)n3)cn2)CC(C)(O)C1 (centres unmarked) [Example 146, 2-(1-((2-(3,5-dichlorophenyl)-6-((2-(6-hydroxy-4,6-dimethyl-1,4-diazepan-1-yl)pyrimidin-5-yl)oxy)pyridin-4-yl)methyl)piperidin-4-yl)acetic acid]
–	31.6	0.631	CN1CCN(c2ncc(Oc3cc(CN4CCC(CC(=O)O)CC4)cc(-c4cc(Cl)cc(Cl)c4)n3)cn2)CC(F)C1 (centres unmarked) [Example 147, 2-(1-((2-(3,5-dichlorophenyl)-6-((2-(6-fluoro-4-methyl-1,4-diazepan-1-yl)pyrimidin-5-yl)oxy)pyridin-4-yl)methyl)piperidin-4-yl)acetic acid]
8.3	63.1	–	Cc1nc(N2CCN(C)CC2)ncc1Oc1cc(CN2CCC(CC(=O)O)CC2)cc(-c2cc(Cl)cc(Cl)c2)n1 [Example 148, 2-(1-((2-(3,5-dichlorophenyl)-6-((4-methyl-2-(4-methylpiperazin-1-yl)pyrimidin-5-yl)oxy)pyridin-4-yl)methyl)piperidin-4-yl)acetic acid]
8.2	100	–	CN1CCN(c2ncc(Oc3cc(CN4CCC(CC(=O)O)CC4)cc(-c4cc(Cl)cc(Cl)c4)n3)cc2F)CC1 [Example 151, 2-(1-((2-(3,5-dichlorophenyl)-6-((5-fluoro-6-(4-methylpiperazin-1-yl)pyridin-3-yl)oxy)pyridin-4-yl)methyl)piperidin-4-yl)acetic acid]
8.1	15.8	–	CC(=O)CC1CCN(Cc2cc(Oc3cnc(N4CCN(C)CC4)nc3)nc(-c3cc(Cl)cc(Cl)c3)c2)CC1 [Example 155, 1-(1-((2-(3,5-dichlorophenyl)-6-((2-(4-methylpiperazin-1-yl)pyrimidin-5-yl)oxy)pyridin-4-yl)methyl)piperidin-4-yl)propan-2-one]
8.8	79.4	–	NC1CCN(c2ncc(Oc3cc(CN4CCC(CC(=O)O)CC4)cc(-c4cc(Cl)cc(Cl)c4)n3)cn2)CC1 [Example 158, 2-(1-((2-((2-(4-Aminopiperidin-1-yl)pyrimidin-5-yl)oxy)-6-(3,5-dichlorophenyl)pyridin-4-yl)methyl)piperidin-4-yl)acetic acid]
8.5	25.1	–	C[C@H]1CN(c2ncc(Oc3cc(CN4CCC(CC(=O)O)CC4)cc(-c4cc(Cl)cc(Cl)c4)n3)cn2)CCN1 [Example 159, (S)-2-(1-((2-(3,5-Dichlorophenyl)-6-((2-(3-methylpiperazin-1-yl)pyrimidin-5-yl)oxy)pyridin-4-yl)methyl)piperidin-4-yl)acetic acid]
8.8	25.1	–	CC1(C)CN(c2ncc(Oc3cc(CN4CCC(CC(=O)O)CC4)cc(-c4cc(Cl)cc(Cl)c4)n3)cn2)CCN1 [Example 160, 2-(1-((2-(3,5-dichlorophenyl)-6-((2-(3,3-dimethylpiperazin-1-yl)pyrimidin-5-yl)oxy)pyridin-4-yl)methyl)piperidin-4-yl)acetic acid]
8.3	39.8	–	O=C(O)CC1CCN(Cc2cc(Oc3cnc(N4CC5CNCC5C4)nc3)nc(-c3cc(Cl)cc(Cl)c3)c2)CC1 (centres unmarked) [Example 161, 2-(1-((2-(3,5-dichlorophenyl)-6-((2-(hexahydropyrrolo[3,4-c]pyrrol-2(1H)-yl)pyrimidin-5-yl)oxy)pyridin-4-yl)methyl)piperidin-4-yl)acetic acid]

Second part, the compound before the results:

SMILES	furin enzyme pIC50 [1]	EC50 [2] [nM]	IC50 ([1]; read-out: furin enzyme pIC50 (converted)) [nM]
CC(=O)NCC1CCN(Cc2cc(Oc3ccc(N4CCN(C)CC(F)C4)nc3)nc(-c3cc(Cl)cc(Cl)c3)c2)CC1 (centres unmarked) [Example 145, N-((1-((2-(3,5-dichlorophenyl)-6-((6-(6-fluoro-4-methyl-1,4-diazepan-1-yl)pyridin-3-yl)oxy)pyridin-4-yl)methyl)piperidin-4-yl)methyl)acetamide]	8.9	2	–
Cc1nc(N2CCN(C)CC2)ccc1Oc1cc(CN2CCC(CC(=O)O)CC2)cc(-c2cc(Cl)cc(Cl)c2)n1 [Example 149, 2-(1-((2-(3,5-dichlorophenyl)-6-((2-methyl-6-(4-methylpiperazin-1-yl)pyridin-3-yl)oxy)pyridin-4-yl)methyl)piperidin-4-yl)acetic acid]	8.3	79.4	–
CN1CCN(c2ccc(Oc3cc(CN4CCC(CC(=O)O)CC4)cc(-c4cc(Cl)cc(Cl)c4)n3)cc2)CC1 [Example 150, 2-(1-((2-(3,5-dichlorophenyl)-6-(4-(4-methylpiperazin-1-yl)phenoxy)pyridin-4-yl)methyl)piperidin-4-yl)acetic acid]	8.2	63.1	–
CN1CCN(c2ncc(Oc3cc(CN4CCO[C@H](CCO)CC4)cc(-c4cc(Cl)cc(Cl)c4)n3)cn2)CC1 [Example 153, (S)-2-(4-((2-(3,5-dichlorophenyl)-6-((2-(4-methylpiperazin-1-yl)pyrimidin-5-yl)oxy)pyridin-4-yl)methyl)-1,4-oxazepan-7-yl)ethanol]	7.9	15.8	–
CC(=O)N[C@@H]1[C@@H]2CN(Cc3cc(Oc4cnc(N5CCCN(C)CC5)nc4)nc(-c4cc(Cl)cc(Cl)c4)c3)C[C@@H]21 [Example 154, N-((1R,5S,6r)-3-((2-(3,5-dichlorophenyl)-6-((2-(4-methyl-1,4-diazepan-1-yl)pyrimidin-5-yl)oxy)pyridin-4-yl)methyl)-3-azabicyclo[3.1.0]hexan-6-yl)acetamide]	7.8	50.1	–
CN1CCCN(c2ccc(Oc3cc(CN4CCC(CC(=O)O)CC4)cc(-c4cc(Cl)cc(Cl)c4)n3)cn2)CC1 [Example 156, 2-(1-((2-(3,5-Dichlorophenyl)-6-((6-(4-methyl-1,4-diazepan-1-yl)pyridin-3-yl)oxy)pyridin-4-yl)methyl)piperidin-4-yl)acetic acid]	8.8	15.8	–
CC(=O)NCC1CCN(Cc2cc(Oc3ccc(N4CCN(C)CC4)nn3)nc(-c3cc(Cl)cc(Cl)c3)c2)CC1 [Example 157, N-((1-((2-(3,5-dichlorophenyl)-6-((6-(4-methylpiperazin-1-yl)pyridazin-3-yl)oxy)pyridin-4-yl)methyl)piperidin-4-yl)methyl)acetamide]	10.8	1.26	–
O=C(O)CC1CCN(Cc2cc(Oc3cnc(N4CC5CC(C4)N5)nc3)nc(-c3cc(Cl)cc(Cl)c3)c2)CC1 [Example 162, 2-(1-((2-((2-(3,6-diazabicyclo[3.1.1]heptan-3-yl)pyrimidin-5-yl)oxy)-6-(3,5-dichlorophenyl)pyridin-4-yl)methyl)piperidin-4-yl)acetic acid]	8.4	79.4	–
O=C(O)CC1CCN(Cc2cc(Oc3cnc(N4CC5CCC(C4)N5)nc3)nc(-c3cc(Cl)cc(Cl)c3)c2)CC1 [Example 163, 2-(1-((2-((2-(3,8-diazabicyclo[3.2.1]octan-3-yl)pyrimidin-5-yl)oxy)-6-(3,5-dichlorophenyl)pyridin-4-yl)methyl)piperidin-4-yl)acetic acid]	8.7	10	–
